Laboratory results taken from article PMC12024457 (Antioxidants, 2025).

What was measured:
[1] = tested on: human triple-negative MDA-MB-231 breast cancer cells; assay: MTT cell viability, MDA-MB-231; format: cell-based; conditions: MDA-MB-231, 48 h, up to 30 µM
Method: (§1) MDA-MB-231 and LX2 cells were seeded in triplicate in 96-well plates at a density of 20,000 cells per well in 100 μL of medium and allowed to attach for 24 h at 37 °C and 5% CO2. Compounds were added at a final DMSO concentration of 0.5%, and cells were incubated for an additional 48 h. The pan-kinase inhibitor staurosporine (1 µM, Merck) was used as a reference compound, and the concentration was selected to efficiently induce cell death (≥90%). […]. The concentrations of Q-VD-OPh and ferrostatin-1 were chosen based on commonly applied ranges reported in the literature and were further optimized in preliminary experiments using the apoptosis inducers etoposide and staurosporine, as well as the ferroptosis inducer RSL3, to ensure suppression of apoptosis and ferroptosis, respectively. […] For the MTT assay, 20 µL of 3-(4,5-dimethylthiazol-2-yl)-2,5-diphenyltetrazolium bromide (MTT, 5 mg/mL in PBS pH = 7.4, sterile-filtered, Merck) solution was added to each well, and the cells were incubated for 1.5 h. […] Absorbance was measured at 570 nm using a SpectraMax iD3 plate reader (Molecular Devices). Absorbance values from ethanol-treated cells were used for background subtraction, and cell viability was expressed as percentage relative to the vehicle control (DMSO). […]

human LX2 stellate cells = assay: MTT cell viability, LX2; format: cell-based; conditions: LX2, 48 h, up to 30 µM
Method: as §1

[2] = tested on: Human MDA-MB-231 breast cancer cells; format: cell-based
Method: MDA-MB-231 and LX2 cells were seeded in triplicate in 96-well plates at a density of 20,000 cells per well in 100 μL of medium and allowed to attach for 24 h at 37 °C and 5% CO2. Compounds were added at a final DMSO concentration of 0.5%, and cells were incubated for an additional 48 h. The pan-kinase inhibitor staurosporine (1 µM, Merck) was used as a reference compound, and the concentration was selected to efficiently induce cell death (≥90%). […]. The concentrations of Q-VD-OPh and ferrostatin-1 were chosen based on commonly applied ranges reported in the literature and were further optimized in preliminary experiments using the apoptosis inducers etoposide and staurosporine, as well as the ferroptosis inducer RSL3, to ensure suppression of apoptosis and ferroptosis, respectively. […] Absorbance was measured at 570 nm using a SpectraMax iD3 plate reader (Molecular Devices). Absorbance values from ethanol-treated cells were used for background subtraction, and cell viability was expressed as percentage relative to the vehicle control (DMSO). […]
Cells were treated with vehicle (0.5% DMSO) or compounds at different concentrations (0.3, 1, 3, 10, and 30 μM) for 48 h. Cell viability measured by MTT assay. […]

MDA-MB-231 cells = assay: Inhibition of RSL3-induced ferroptotic cell death (MTT); format: cell-based, human; conditions: at either 3 or 30 μM, RSL3 0.3 µM
Method: The anti-ferroptotic properties of the compounds were evaluated in MDA-MB-231 cells. Cells were seeded in 96-well plates at a density of 20,000 cells per well in 100 μL of medium. After 24 h at 37 °C and 5% CO2, cells were treated with the vehicle (0.5% DMSO) or the compounds at 3 µM and 30 µM alone or in combination with RSL3 (0.3 μM, Cayman Chemicals) for an additional 48 h. The cellular dehydrogenase activity was assessed by the reduction of MTT, as described in Section 2.4.
Radar plot illustrating cell viability measured by MTT assay. […] Data are presented as the mean of n = 3 independent experiments. * p < 0.05, ** p < 0.01; paired Student’s t-test.

[3] = TE: Trolox equivalent
[4] = DPPH radical scavenging assay; conditions: read-out: DPPH (EC50)

| SMILES | EC50 [1] [µM] | EC50 (human LX2 stellate cells) [µM] | effect of ferroptosis inhibitor Fer-1 on compound-induced cell death ([2]; Fer-1 10 μM, 48 h) | effect of apoptosis inhibitor Q-VD on compound-induced cell death ([2]; human) | cytoprotective effects against RSL3-induced ferroptosis (MDA-MB-231 cells) | ORAC (TE) [3] [TE] | EC50 [4] [µM] |
| --- | --- | --- | --- | --- | --- | --- | --- |
| COc1cc(/C=C/C(=O)CC(=O)/C=C/c2ccc(O)c(OC)c2)ccc1O [Curcumin] | 20 | 23 | partially attenuated by Fer-1 | tendentially by Q-VD | did not exhibit cytoprotective effects | – | – |
| OCCc1ccc(O)c(O)c1 [HTYR, 3-hydroxy-tyrosol] | – | – | – | – | – | 7.40 ± 0.17 | 12.3 ± 1 |
| COc1ccc2[nH]cc(CCO)c2c1 [MEL, 5-methoxytryptophol] | – | – | – | – | – | 2.23 ± 0.12 | > 1000 |
| COc1cc(CCO)ccc1O [MTYR, 3-methoxy-tyrosol] | – | – | – | – | – | 2.90 ± 0.21 | 31 ± 2.6 |
| OCCc1ccc(O)cc1 [TYR, tyrosol] | – | – | – | – | – | 2.18 ± 0.12 | > 1000 |
